What was measured:
[1] = target: T1, HER2 kinase (Homo sapiens, UniProt P04626); assay: HER2 kinase assay (ULight/PT66 TR-FRET); type: biochemical
T1 construct: purchased Carna Biosciences 08-016
Method: (§1) Preparation of compound solution: The assay compound was dissolved in DMSO to form a 10 mM stock solution. Prior to use, the compound was diluted to 0.25 mM in DMSO (100 times the final concentration of the diluent) and then subjected to a 3-fold concentration gradient dilution to obtain a total of 11 concentrations. The solution was diluted with buffer to a diluent with 4× the final concentration when the compound was added.
(§2) HER2 kinase assay: buffer was prepared, and 40 nM 4×Her2 kinase solution, 40 μM 4×ATP solution, and 400 nM 4×ULight™-labeled Ploy GT Peptide substrate solution were prepared using the buffer. After the preparation was completed, the enzyme was mixed with different concentrations of compounds pre-prepared by dilution, and the mixture was left to stand at room temperature for 5 min. Each concentration was performed in duplicate. The corresponding substrate and ATP were added and the mixture was reacted at room temperature for 120 minutes (with negative and positive controls). After completion of the reaction, PT66 detection antibody was added. The mixture was incubated at room temperature for 60 minutes, and then detected by Envision.
(§3) Compound concentrations and corresponding inhibition rates were input into GraphPad Prism for processing to calculate IC50 values.

[2] = target: EGFR^WT kinase (Homo sapiens, UniProt P00533); assay: EGFR^WT kinase assay (ULight/PT66 TR-FRET); type: biochemical
Sequence of EGFR^WT kinase (P00533 25-1210): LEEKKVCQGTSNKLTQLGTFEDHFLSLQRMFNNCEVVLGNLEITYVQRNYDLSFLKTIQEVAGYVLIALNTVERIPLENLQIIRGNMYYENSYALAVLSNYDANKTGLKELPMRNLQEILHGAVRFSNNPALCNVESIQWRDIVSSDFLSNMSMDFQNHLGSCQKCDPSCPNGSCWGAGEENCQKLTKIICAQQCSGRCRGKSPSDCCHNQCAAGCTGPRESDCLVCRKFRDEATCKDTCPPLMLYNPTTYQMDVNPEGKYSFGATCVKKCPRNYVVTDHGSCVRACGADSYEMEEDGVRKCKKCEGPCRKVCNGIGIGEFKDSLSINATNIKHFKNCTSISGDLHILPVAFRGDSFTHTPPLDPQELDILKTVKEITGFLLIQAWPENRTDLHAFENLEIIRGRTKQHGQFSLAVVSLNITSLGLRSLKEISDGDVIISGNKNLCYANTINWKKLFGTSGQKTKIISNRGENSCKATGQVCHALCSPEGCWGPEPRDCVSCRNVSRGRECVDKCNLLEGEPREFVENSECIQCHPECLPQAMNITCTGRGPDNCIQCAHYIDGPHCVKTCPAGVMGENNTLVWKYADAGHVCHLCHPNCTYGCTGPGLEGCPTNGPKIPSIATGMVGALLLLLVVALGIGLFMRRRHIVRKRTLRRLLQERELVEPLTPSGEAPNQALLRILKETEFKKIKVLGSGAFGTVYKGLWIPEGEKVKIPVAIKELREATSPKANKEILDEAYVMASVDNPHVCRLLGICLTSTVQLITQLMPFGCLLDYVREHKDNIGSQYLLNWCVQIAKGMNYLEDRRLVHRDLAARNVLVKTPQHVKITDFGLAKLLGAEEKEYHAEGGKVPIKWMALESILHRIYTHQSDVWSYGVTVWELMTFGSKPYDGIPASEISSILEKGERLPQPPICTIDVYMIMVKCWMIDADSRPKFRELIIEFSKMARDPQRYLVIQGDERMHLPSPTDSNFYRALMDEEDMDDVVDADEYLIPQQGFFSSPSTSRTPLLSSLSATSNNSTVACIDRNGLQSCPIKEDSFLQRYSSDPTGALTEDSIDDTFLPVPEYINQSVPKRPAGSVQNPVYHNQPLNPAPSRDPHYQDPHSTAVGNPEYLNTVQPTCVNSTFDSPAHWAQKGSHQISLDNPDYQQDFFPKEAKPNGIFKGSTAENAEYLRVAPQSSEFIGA
Method: as §1
as §2, with “EGFR^WT kinase assay:” for “HER2 kinase assay:”, “prepared, and 3.48 nM 4×EGFR” for “prepared, and 40 nM 4×Her2”, “3.48 nM 4×EGFR kinase solution,” for “40 nM 4×Her2 kinase solution,”, “kinase solution, 600 μM 4×ATP” for “kinase solution, 40 μM 4×ATP”, “nM 4×ULight™-labeled JAK-1 (Try1023) Peptide substrate” for “nM 4×ULight™-labeled Ploy GT Peptide substrate”
as §3

[3] = target: Ba/F3 HER2 A775_G776insYVMA cells (Homo sapiens, UniProt P04626, DUP772-775, cells depend on it); assay: Inhibition of cell proliferation, CTG method, Ba/F3 HER2 A775_G776insYVMA; type: cell-based; conditions: 72 hours, read-out: Ba/F3 HER2 A775-G776insYVMA IC50
Sequence of Ba/F3 HER2 A775_G776insYVMA cells (P04626 with tags, fused parts or gaps DUP772-775): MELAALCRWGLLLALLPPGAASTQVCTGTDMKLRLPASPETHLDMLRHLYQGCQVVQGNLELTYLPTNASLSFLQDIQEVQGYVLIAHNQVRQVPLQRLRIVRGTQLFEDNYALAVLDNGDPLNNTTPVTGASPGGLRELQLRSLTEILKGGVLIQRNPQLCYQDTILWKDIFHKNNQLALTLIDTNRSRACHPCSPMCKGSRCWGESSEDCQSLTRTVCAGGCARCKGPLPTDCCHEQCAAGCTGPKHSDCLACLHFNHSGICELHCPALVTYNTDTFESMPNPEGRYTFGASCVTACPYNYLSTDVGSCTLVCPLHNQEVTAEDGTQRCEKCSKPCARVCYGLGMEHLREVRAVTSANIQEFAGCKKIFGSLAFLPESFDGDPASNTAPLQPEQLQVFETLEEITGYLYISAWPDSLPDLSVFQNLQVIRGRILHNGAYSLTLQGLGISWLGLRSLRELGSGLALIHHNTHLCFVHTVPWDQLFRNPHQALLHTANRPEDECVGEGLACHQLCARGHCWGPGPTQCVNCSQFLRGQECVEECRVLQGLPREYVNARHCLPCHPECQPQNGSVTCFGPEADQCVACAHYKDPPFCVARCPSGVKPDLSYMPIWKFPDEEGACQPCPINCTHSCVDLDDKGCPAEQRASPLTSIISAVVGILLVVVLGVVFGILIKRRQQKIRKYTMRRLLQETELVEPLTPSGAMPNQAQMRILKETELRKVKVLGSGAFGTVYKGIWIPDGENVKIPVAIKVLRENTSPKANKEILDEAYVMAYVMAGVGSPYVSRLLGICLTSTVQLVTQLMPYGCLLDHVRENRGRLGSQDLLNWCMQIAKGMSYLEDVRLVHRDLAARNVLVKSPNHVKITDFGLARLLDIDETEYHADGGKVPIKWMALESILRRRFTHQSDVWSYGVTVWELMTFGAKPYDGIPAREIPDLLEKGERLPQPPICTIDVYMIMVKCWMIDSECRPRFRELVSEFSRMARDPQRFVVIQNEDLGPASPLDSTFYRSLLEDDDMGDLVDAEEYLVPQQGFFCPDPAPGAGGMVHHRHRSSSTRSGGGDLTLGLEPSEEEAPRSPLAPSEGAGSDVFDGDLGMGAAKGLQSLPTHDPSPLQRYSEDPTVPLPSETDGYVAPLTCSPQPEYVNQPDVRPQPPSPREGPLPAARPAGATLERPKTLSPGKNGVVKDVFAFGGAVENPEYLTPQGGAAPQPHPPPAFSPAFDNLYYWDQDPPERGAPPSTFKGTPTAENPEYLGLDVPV
Source text: The present application examined the in vitro anti-proliferative activity of the compounds of the present disclosure against in vitro cultured BT474, NCI-N87, Ba/F3-EGFR-VIII and Ba/F3 HER2 A775_G776insYVMA and Ba/F3 EGFR D770_N771insSVD cell lines by CTG method.
Cell lines: BT474 (from the cell bank of Chinese Academy of Sciences), NCI-N87 (from ATCC), Ba/F3-EGFR-VIII, Ba/F3 HER2 A775_G776insYVMA and Ba/F3 EGFR D770_N771insSVD (all from KYinno Biotechnology (Beijing) Co., Ltd.); all of the above cells were cultured with RPMI1640 medium containing 10% fetal bovine serum, 100 U/mL penicillin, and 100 μg/mL streptomycin in the culture process.
1. The assay compound was dissolved with DMSO to form a stock solution and a gradient dilution was performed, followed by dilution with the corresponding medium to obtain a solution with 5-fold working concentration.
2. Cells in logarithmic growth phase were adjusted to specific cell densities by dilution with culture medium, and 80 μL of cell suspension was added to a 96-well plate, such that plating densities of cells of BT474, NCI-N87, Ba/F3-EGFR-VIII, Ba/F3 HER2 A775_G776insYVMA and Ba/F3 EGFR D770_N771insSVD were all 3000 cells/well. The cells of Ba/F3-EGFR-VIII, Ba/F3 HER2 A775_G776insYVMA and Ba/F3 EGFR D770_N771insSVD were used directly in the next step (treatment with compound), whereas the BT474 and NCI-N87 needed to be cultured overnight in a 37° C., 5% carbon dioxide gas incubator to adhere to the wall, and then treated with compounds.
3. […] The highest concentration of the assayed compound was 10 μM, 4-fold serial dilution, a total of 9 concentrations, and duplicate wells. A control group without compound was also set up.
4. The cells were cultured for another 72 hours, and then cell viability was detected by CTG assay kit. Signal values were read with a multifunctional plate reader (Perkin Elmer). GraphPad Prism software was used to create a dose-response curve and IC50 was calculated.

T1 sequence (P04626 23-1255): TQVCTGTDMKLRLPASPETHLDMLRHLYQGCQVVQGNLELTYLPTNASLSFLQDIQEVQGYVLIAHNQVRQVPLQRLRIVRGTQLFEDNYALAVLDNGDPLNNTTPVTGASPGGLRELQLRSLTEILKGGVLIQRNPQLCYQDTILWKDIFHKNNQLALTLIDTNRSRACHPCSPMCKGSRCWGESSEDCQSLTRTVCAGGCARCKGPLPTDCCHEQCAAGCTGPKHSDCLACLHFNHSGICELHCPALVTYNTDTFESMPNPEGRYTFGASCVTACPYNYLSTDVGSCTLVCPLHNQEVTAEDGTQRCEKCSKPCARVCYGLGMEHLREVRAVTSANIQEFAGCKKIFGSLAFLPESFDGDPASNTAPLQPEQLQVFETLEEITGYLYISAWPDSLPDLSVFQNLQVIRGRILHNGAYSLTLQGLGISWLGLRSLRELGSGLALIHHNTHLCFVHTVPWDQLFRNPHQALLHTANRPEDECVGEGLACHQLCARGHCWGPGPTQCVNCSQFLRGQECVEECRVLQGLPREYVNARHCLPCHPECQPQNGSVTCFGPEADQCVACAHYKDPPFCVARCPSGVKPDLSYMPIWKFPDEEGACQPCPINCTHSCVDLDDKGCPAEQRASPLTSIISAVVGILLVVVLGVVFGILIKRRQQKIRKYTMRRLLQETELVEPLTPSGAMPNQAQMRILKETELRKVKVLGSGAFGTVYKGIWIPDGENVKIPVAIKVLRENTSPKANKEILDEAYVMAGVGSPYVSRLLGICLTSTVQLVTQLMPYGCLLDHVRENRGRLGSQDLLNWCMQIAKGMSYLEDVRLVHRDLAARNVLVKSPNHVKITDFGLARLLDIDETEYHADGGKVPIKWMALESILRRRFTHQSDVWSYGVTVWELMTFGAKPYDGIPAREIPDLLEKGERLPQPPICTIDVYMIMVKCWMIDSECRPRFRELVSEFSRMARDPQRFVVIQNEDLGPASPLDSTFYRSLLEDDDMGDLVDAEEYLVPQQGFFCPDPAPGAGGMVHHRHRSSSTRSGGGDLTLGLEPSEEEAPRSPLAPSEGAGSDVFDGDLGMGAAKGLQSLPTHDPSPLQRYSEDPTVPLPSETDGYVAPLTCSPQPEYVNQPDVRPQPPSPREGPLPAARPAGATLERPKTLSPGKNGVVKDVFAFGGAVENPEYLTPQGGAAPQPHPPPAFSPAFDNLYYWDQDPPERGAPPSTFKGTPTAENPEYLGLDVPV

| IC50 [1] [nM] | IC50 [2] [nM] | GI50 [3] [nM] | Compound |
| --- | --- | --- | --- |
| < 10 | 100 to 1000 | 1 to 5 | COCCN1CCC[C@@H]1/C=C/C(=O)Nc1ccc2ncnc(Nc3ccc(OCc4ccccn4)c(Cl)c3)c2c1OC [Example 25, (R,E)-N-(4-((3-chloro-4-(pyridin-2-ylmethoxy)phenyl)amino)-5-methoxyquinazolin-6-yl)-3-(1-(2-methoxyethyl)pyrrolidin-2-yl)acrylamide] |
| < 10 | 10 to 100 | 1 to 5 | COc1cccc(COc2ccc(Nc3ncnc4ccc(NC(=O)/C=C/[C@H]5CCCN5C)c(OC)c34)cc2Cl)n1 [Example 27, (R,E)-N-(4-((3-chloro-4-((6-methoxypyridin-2-yl)methoxy)phenyl)amino)-5-methoxyquinazolin-6-yl)-3-(1-methylpyrrolidin-2-yl)acrylamide] |
| < 10 | < 10 | 1 to 5 | COc1c(NC(=O)/C=C/[C@H]2CCCN2C)ccc2ncnc(Nc3ccc(OCc4ccccn4)c(F)c3)c12 [Example 30, (R,E)-N-(4-((3-fluoro-4-(pyridin-2-ylmethoxy)phenyl)amino)-5-methoxyquinazolin-6-yl)-3-(1-methylpyrrolidin-2-yl)acrylamide] |
| < 10 | < 10 | 1 to 5 | CN1CCC[C@@H]1/C=C/C(=O)Nc1ccc2ncnc(Nc3ccc(Oc4ccccc4)cc3)c2c1OCCO [Example 31, (R,E)-N-(5-(2-hydroxyethoxy)-4-((4-phenyloxyphenyl)amino)quinazolin-6-yl)-3-(1-methylpyrrolidin-2-yl)acrylamide] |
| < 10 | 100 to 1000 | 1 to 5 | COCCCNc1c(NC(=O)/C=C/[C@H]2CCCN2C)ccc2ncnc(Nc3ccc(OCc4ccccn4)c(Cl)c3)c12 [Example 32, (R,E)-N-(4-((3-chloro-4-(pyridin-2-ylmethoxy)phenyl)amino)-5-((3-methoxypropyl)amino)quinazolin-6-yl)-3-(1-methylpyrrolidin-2-yl)acrylamide] |
| < 10 | < 10 | 1 to 5 | [2H]C([2H])([2H])Oc1c(NC(=O)/C=C/[C@H]2CCCN2CC)ccc2ncnc(Nc3ccc(OCc4ccccn4)c(Cl)c3)c12 [Example 34, (R,E)-N-(4-((3-chloro-4-(pyridin-2-ylmethoxy)phenyl)amino)-5-(methoxy-d3)quinazolin-6-yl)-3-(1-ethylpyrrolidin-2-yl)acrylamide] |
| < 10 | 10 to 100 | 1 to 5 | [2H]C([2H])([2H])Oc1c(NC(=O)/C=C/[C@H]2CCCN2C(C)C)ccc2ncnc(Nc3ccc(OCc4ccccn4)c(Cl)c3)c12 [Example 35, (R,E)-N-(4-((3-chloro-4-(pyridin-2-ylmethoxy)phenyl)amino)-5-(methoxy-d3)quinazolin-6-yl)-3-(1-isopropylpyrrolidin-2-yl)acrylamide] |
| < 10 | < 10 | 1 to 5 | [2H]C([2H])([2H])Oc1c(NC(=O)/C=C/CN(C)C)ccc2ncnc(Nc3ccc(OCc4ccccn4)c(Cl)c3)c12 [Example 36, (E)-N-(4-((3-chloro-4-(pyridin-2-ylmethoxy)phenyl)amino)-5-(methoxy-d3)quinazolin-6-yl)-4-(dimethylamino)but-2-enamide] |
| < 10 | 10 to 100 | 1 to 5 | CN1CCC[C@@H]1/C=C/C(=O)Nc1ccc2ncnc(Nc3ccc(OCc4ccccn4)c(Cl)c3)c2c1OC1CC1 [Example 37, (R,E)-N-(4-((3-chloro-4-(pyridin-2-ylmethoxy)phenyl)amino)-5-cyclopropoxyquinazolin-6-yl)-3-(1-methylpyrrolidin-2-yl)acrylamide] |
| < 10 | < 10 | 1 to 5 | CN1CCC[C@@H]1/C=C/C(=O)Nc1ccc2ncnc(Nc3ccc(OCc4ccccn4)c(Cl)c3)c2c1OCC1CC1 [Example 38, (R,E)-N-(4-((3-chloro-4-(pyridin-2-ylmethoxy)phenyl)amino)-5-(cyclopropylmethoxy)quinazolin-6-yl)-3-(1-methylpyrrolidone-2-yl)acrylamide] |
| < 10 | < 10 | 1 to 5 | CN1CCC[C@@H]1/C=C/C(=O)Nc1ccc2ncnc(Nc3ccc(OCc4ccccn4)c(Cl)c3)c2c1OC1CCOC1 (stereo partly drawn) [Example 40, (E)-N-(4-((3-chloro-4-(pyridin-2-ylmethoxy)phenyl)amino)-5-((tetrahydrofuran-3-yl)oxy)quinazolin-6-yl)-3-((R)-1-methylpyrrolidin-2-yl)acrylamide] |

| Compound | IC50 [1] [nM] | IC50 [2] [nM] | GI50 [3] [nM] |
| --- | --- | --- | --- |
| CN1CCC[C@@H]1/C=C/C(=O)Nc1ccc2ncnc(Nc3ccc(OCc4ccccn4)c(Cl)c3)c2c1OC1CCC1 [Example 39, (R,E)-N-(4-((3-chloro-4-(pyridin-2-ylmethoxy)phenyl)amino)-5-cyclobutoxyquinazolin-6-yl)-3-(1-methylpyrrolidin-2-yl)acrylamide] | < 10 | < 10 | 1 to 5 |
